PMC4162403 (Angewandte Chemie (International ed. in English), 2010)

Target: TNF-α (Homo sapiens, UniProt P01375)
Assay: inhibition of TNFR-1 binding to TNF-α, side-by-side experiment
Details: read-out: % inhibition at 10 μM

TNF-α, sequence (P01375 77-233): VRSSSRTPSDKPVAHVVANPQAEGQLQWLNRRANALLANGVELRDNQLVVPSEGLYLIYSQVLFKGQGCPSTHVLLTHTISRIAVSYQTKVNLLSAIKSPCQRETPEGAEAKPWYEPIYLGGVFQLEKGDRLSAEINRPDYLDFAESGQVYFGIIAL

**Q.** How did the inhibition at 10 µM turn out when Cc1cc2occ(CN(C)CCN(C)Cc3cn(-c4cccc(C(F)(F)F)c4)c4ccccc34)c(=O)c2cc1C [SPD304] was run?
**A.** The inhibition at 10 µM was 34%.
